Assay [1] deals with IL-1β p17 in the cerebral spinal fluid. Kind of assay: Test on IL-1β production in rat central nerve (LPS/BzATP intracisternal, CSF Western blot). To be noted: oral.
Method: After 2 hours, the test compound was orally administered. After 1 hour, 50 μg/5 μL of BzATP (2′(3′)-O-(4-Benzoylbenzoyl)adenosine 5′-triphosphate triethylammonium salt, SIGMA, B6396) was intracisternally administered, and after 30 minutes, a cerebral spinal fluid was collected. The amount of IL-1β p17 in the cerebral spinal fluid was determined by a Western blotting method using an anti-IL-1β antibody (Millipore, AB1832P), and the inhibition ratio to the solvent administration group was calculated.
In assay [2] the test system is IL-1β Production of THP-1. Kind of assay: Test on IL-1β production of THP-1 (LPS and ATP stimulation, ELISA). The assay is classed as cell-based. Conditions: Homo sapiens; PMA-differentiated THP-1 cells, LPS 50 ng/mL and ATP 5 mM, 2 hours. On the procedure: 50 ng/mL of PMA (phorbol myristate acetate, SIGMA, P1585) was added to THP-1 cells, and the cells were cultured at 37° C. for 2 days. […] LPS (Lipopolysaccharide, SIMGA, L2880) and ATP (Adenosine triphosphate, SIGMA, A2383) were added to final concentrations of 50 ng/mL and 5 mM, respectively, and the cells were cultured at 37° C. for 2 hours. The supernatant was collected, and the concentration of IL-1β was measured by an ELISA method (DuoSet ELISA human IL-1β, R&D Systems, DY201). […] The IC50 value was calculated by sigmoid […] model non-linear regression analysis.

The structures appear in SMILES notation. pIC50: −log10 of the molar value. Structures can show the parent of a compound that is named as a salt.

For `Cc1c(NC[C@@H](C)O)nnc(-c2ccc(C(F)(F)F)cc2O)c1C` [Example 9, 2-(6-{[(R2R)-2-hydroxypropyl]amino}-4,5-dimethylpyridazin-3-yl)-5-(trifluoromethyl)phenol], the figures for the “IL-1β p17 inhibition ratio to the solvent administration group” value in assay [1] (Dose 0.3 mg/kg), in assay [1] (Dose 1 mg/kg) and in assay [1] (Dose 3 mg/kg) were 37%, 70% and 89%, respectively. This molecule had a pIC50 in assay [2] of 7.85.
In turn, `Cc1c(NC[C@@H](C)CO)nnc(-c2ccc(C(F)(F)F)cc2O)c1C` (single isomer, unassigned) [Example 76, 2-(6-{[(R2R)-3-hydroxy-2-methylpropyl]amino}-4,5-dimethylpyridazine-3-yl)-5-(trifluoromethyl)phenol] had a pIC50 in assay [2] of 7.59.
On the same count and under the same terms, the result for `C[C@@H]1COCCN1C(=O)c1cc(-c2ccc(C(F)(F)F)cc2C(F)(F)F)nnc1NC[C@@H](C)O` [Example 56] reads 5.60.
The same measure, in the same setting: the result for `Cc1cc(-c2ccc(Cl)cc2C(F)(F)F)nnc1NC[C@@H](C)O` [Example 23] reads 6.92.
Still for that read-out and setting: the result for `Cc1cc(NC[C@@H](C)O)nnc1-c1c(O)cccc1F` [Example 36] reads 6.21; that for `C[C@@H]1CN(C(=O)c2cc(-c3ccc(C(F)(F)F)cc3C(F)(F)F)nnc2NC[C@@H](C)O)CCO1` [Example 58], 6.02; that for `CC(=O)NCCCCNc1nnc(-c2ccc(C(F)(F)F)cc2O)c(C)c1C` [Example 74], 7.46.
`C[C@@H](O)CNc1nnc(-c2ccc(C(F)(F)F)cc2C(F)(F)F)cc1C(N)=O` [Example 41] showed a pIC50 in assay [2] of 6.70.
Still for that read-out and setting: the result for `Cc1cc(NC[C@@H](C)O)nnc1-c1ccc(Cl)cc1O` [Example 66] reads 7.33; that for `C[C@@H](O)CNc1nnc(-c2ccc(C(F)(F)F)cc2C(F)(F)F)cc1OCCOCc1ccccc1` [Example 19], 6.21.
Same read-out and setting: the result for `OCCCNc1nnc(-c2ccc(C(F)(F)F)cc2)cc1-c1ccccc1` [Example 2] reads 5.74.
On the same count and under the same terms, the result for `Cc1cc(NC[C@@H](C)O)nnc1-c1cccc(Cl)c1O` [Example 33] reads 6.77.
Turning to `Cc1c(NCCCO)nnc(-c2ccc(C(F)(F)F)cc2O)c1C` [Example 70, 2-{6-[(3-hydroxypropyl)amino]-4,5-dimethylpyridazine-3-yl}-5-(trifluoromethyl)phenol], the pIC50 in assay [2] is 7.44. Against the preceding molecule, the pIC50 is 0.67 log units higher.
Same read-out and setting: the result for `C[C@@H](O)CNc1nnc(-c2ccc(C(F)(F)F)cc2C(F)(F)F)cc1-n1cccn1` [Example 13] reads 6.92.
The same measure, in the same setting: the result for `Cc1c(NC[C@H](C)CO)nnc(-c2ccc(C(F)(F)F)cc2O)c1C` [Example 75] reads 7.74.
Still for that read-out and setting: the result for `C[C@@H](O)CNc1nnc(-c2ccc(C(F)(F)F)cc2C(F)(F)F)cc1OC(F)F` [Example 49, (2R)-1-({6-[2,4-bis(trifluoromethyl)phenyl]-4-(difluoromethoxy)pyridazin-3-yl}amino)propan-2-ol hydrochloride] reads 6.17; that for `Cc1c(NCC(C)(C)O)nnc(-c2ccc(C(F)(F)F)cc2O)c1C` [Example 68, 2-{6-[(2-hydroxy-2-methylpropyl)amino]-4,5-dimethylpyridazine-3-yl}-5-(trifluoromethyl)phenol], 6.51.
`C[C@@H](O)CNc1nnc(-c2ccc(C(F)(F)F)cc2O)c(C2CC2)c1C1CC1` [Example 39] gave a pIC50 in assay [2] of 6.12.
In assay [2], `CCc1c(NC[C@@H](C)O)nnc(-c2ccc(C(F)(F)F)cc2O)c1CC` [Example 67] showed a pIC50 of 6.77.
Molecule `Cc1c(NCC(C)CO)nnc(-c2ccc(Cl)cc2O)c1C` (stereo not shown) [Example 77] had a pIC50 in assay [2] of 7.05.
The same measure, in the same setting: the result for `C[C@@H](O)CNc1nnc(-c2ccc(C(F)(F)F)cc2C(F)(F)F)cc1C1CC1` [Example 28] reads 6.70.
In the case of `Cc1c(NC[C@@H](C)O)nnc(-c2ccc(C(F)(F)F)cc2C(F)(F)F)c1C` [Example 4, (2R)-1-({6-[2,4-bis(trifluoromethyl)phenyl]-4,5-dimethylpyridazin-3-yl}amino)propan-2-ol], the results for the “IL-1β p17 inhibition ratio to the solvent administration group” value in assay [1] (Dose 3 mg/kg), in assay [1] (Dose 10 mg/kg) and in assay [1] (Dose 30 mg/kg) were 68%, 93% and 100%, respectively. In assay [2], this molecule showed a negative-log IC50 (pIC50) of 6.68.
On to `C[C@@H](O)CNc1nnc(-c2ccc(C(F)(F)F)cc2C(F)(F)F)cc1C(=O)N1CCO[C@@H](C)C1` [Example 43], for which the pIC50 in assay [2] was 6.07.
Same read-out and setting: the result for `Cc1c(NC[C@H](C)O)nnc(-c2ccc(C(F)(F)F)cc2C(F)(F)F)c1C` [Example 20] reads 5.82.
Same read-out and setting: the result for `OCCCNc1nnc(-c2ccc(C(F)(F)F)cc2)cc1-c1ccco1` [Example 50] reads 5.96.
The same measure, in the same setting: the result for `C[C@@H](O)CNc1nnc(-c2ccc(C(F)(F)F)cc2C(F)(F)F)cc1C(=O)N1CCN(C)CC1` [Example 42, (6-[2,4-bis(trifluoromethyl)phenyl]-3-{[(2R)-2-hydroxypropyl]amino}pyridazine-4-yl)(4-methylpiperazin-1-yl)methanone] reads 5.82; that for `C[C@@H](O)CNc1nnc(-c2ccc(C(F)(F)F)cc2C(F)(F)F)cc1C(=O)N1CCSCC1` [Example 44], 6.24; that for `Cc1cc(-c2ccc(C(F)(F)F)cc2C(F)(F)F)nnc1NC[C@@H](C)O` [Example 6, (2R)-1-({6-[2,4-bis(trifluoromethyl)phenyl]-4-methylpyridazin-3-yl}amino)propan-2-ol], 7.05.

Values taken from US20230107277A1, “SUBSTITUTED PYRIDAZINE COMPOUND” (Astellas Pharma Inc., priority 2020, published 2023).
